How the values were obtained:
[1] = system: synthetic DNA duplex (23 nt- 5'TCTTCAAGAATTCAGGTCCTGAT 3'); test: Circular dichroism (CD) spectra of DNA with test compounds; type: binding; conditions: DNA duplex 2µM, compound 20µM, 0.2% DMSO, PBS, 23°C, immediately after addition
Protocol: The ability of the test compounds 1a and 1b to interact with DNA was tested by the circular dichroism (CD) technique.
1. For this purpose, samples were prepared in PBS buffer containing: 2µM of synthetic DNA duplex (23 nt- 5'TCTTCAAGAATTCAGGTCCTGAT 3') or DNA of bovine thymus (0.2 mg/ml) and test compounds at a concentration of 20µM or 40µM for synthetic DNA duplex sample and thymus DNA sample, respectively. The samples contained 0.2% or 0.4% DMSO (for synthetic DNA duplex sample and thymus DNA sample, respectively), which is a solvent of the test compounds.
2. CD spectra (in the range from 200 nm to 320 nm) were recorded immediately after addition of the test compounds as well as after 1.5 h incubation. The measurement was carried out at 23°C in a quartz cuvette (optical path length 0.5 cm) using a spectroscope CD6 (Jobin-Yvon, France).
3. CD spectra of DNA incubated with the test compounds were compared with the control spectrum (spectrum was recorded for a sample of DNA (2µM or 0.2 mg/ml) in the presence of DMSO (final concentration of 0.2% or 0.4%).

[2] = system: DNA plasmid pcDNA 3.1 HisC (8.2 kb); test: Digestion of plasmid DNA with restriction enzyme Bam H1 after incubation with compounds (agarose gel electrophoresis); type: biochemical; conditions: compound 2 or 20 µM, overnight incubation at 37°C, then BamH1 2U/sample for 3 hours at 37°C; gel not shown
Protocol: The impact of compounds 1a and 1b has been tested on the digestion of DNA plasmid pcDNA 3.1 HisC (8.2 kb) with restriction enzyme Bam H1.
1. For this purpose, pcDNA 3.1 HisC plasmid DNA (0.6 µg) was dissolved in 1×BamH1 buffer and incubated overnight at 37°C with the following reference or test compounds:
The concentration of the reference and test compounds in each sample was 2 or 20 µM.
2. After overnight incubation, the reaction mixture was digested with BamH1 restriction enzyme (2U/sample) for 3 hours at 37°C. The total volume of the samples was 10 µL.
3. The reaction products were applied on 1% agarose gel and electrophoresis was performed in TAE buffer.

SMILES | change of CD spectrum of duplex DNA compared to the control (duplex DNA + DMSO) [1] | interaction with plasmid DNA: resistance to digestion by the endonucleolytic enzyme Bam H1 [2]
O=C(/C(=C/c1ccc2ccc3cccc4ccc1c2c34)P(=O)(O)O)c1ccc2c(c1)OCO2 [Compound 1b, (Z)-3-(benzo[d][1,3]dioxol-5-yl)-1-(pyrene-1-yl)-3-oxoprop-1-en-2-ylphosphonic acid] | changes compared to the control sample | increasing its resistance to digestion
COc1cccc2c1C(=O)c1c(O)c3c(c(O)c1C2=O)C[C@@](O)(C(C)=O)C[C@@H]3O[C@H]1C[C@H](N)[C@H](O)[C@H](C)O1 [Daunorubicin, reference compound] | changing significantly its structure | increasing its resistance to digestion
COP(=O)(OC)/C(=C/c1ccc2ccc3cccc4ccc1c2c34)C(=O)c1ccc2c(c1)OCO2 [Compound 1a] | changes compared to the control sample | increasing its resistance to digestion
